Legend:
[1] = target: T1, Sodium- and chloride-dependent glycine transporter 1 (Homo sapiens, UniProt P48067)
T1 sequence (P48067 whole entry): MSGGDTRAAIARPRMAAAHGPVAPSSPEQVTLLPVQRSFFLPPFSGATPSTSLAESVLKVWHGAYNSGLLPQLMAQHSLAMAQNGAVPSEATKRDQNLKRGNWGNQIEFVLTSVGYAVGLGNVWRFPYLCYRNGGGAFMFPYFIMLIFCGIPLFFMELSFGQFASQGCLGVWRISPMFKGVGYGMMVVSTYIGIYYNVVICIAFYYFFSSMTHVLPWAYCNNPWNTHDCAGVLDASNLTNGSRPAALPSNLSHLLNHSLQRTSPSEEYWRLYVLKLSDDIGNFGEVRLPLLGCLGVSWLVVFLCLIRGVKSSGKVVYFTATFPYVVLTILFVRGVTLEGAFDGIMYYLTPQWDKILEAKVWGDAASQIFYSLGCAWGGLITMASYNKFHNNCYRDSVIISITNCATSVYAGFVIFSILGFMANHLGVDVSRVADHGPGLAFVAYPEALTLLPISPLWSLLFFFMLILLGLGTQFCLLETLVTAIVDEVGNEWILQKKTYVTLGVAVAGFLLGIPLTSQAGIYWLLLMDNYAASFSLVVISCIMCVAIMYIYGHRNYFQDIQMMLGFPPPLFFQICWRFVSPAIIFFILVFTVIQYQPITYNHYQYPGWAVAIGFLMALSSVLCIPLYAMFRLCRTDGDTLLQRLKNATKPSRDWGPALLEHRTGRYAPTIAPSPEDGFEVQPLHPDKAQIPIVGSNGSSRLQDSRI
Description: (§1) Inhibition of [3H]glycine uptake in human GlyT1c expressed in HEK293 cells

Rattus norvegicus [2] = assay: Bioavailability in rat at 5 mg/kg, sc; format: ADME, organism-based; details: in vivo
[3] = Plasma clearance in rat at 1 mg/kg, iv; format: ADME, organism-based; design: dose 1 mg/kg, route intravenous
[4] = Half life in rat at 5 mg/kg, sc; format: ADME, organism-based; design: dose 5 mg/kg, route subcutaneous; details: in vivo
[5] = Cmax in rat at 5 mg/kg, sc; format: ADME, organism-based; design: dose 5 mg/kg, route subcutaneous; details: in vivo
Brain = assay: Drug level in rat brain at 5 mg/kg, sc; format: ADME, organism-based; design: dose 5 mg/kg, route subcutaneous; details: in vivo
Liver microsomes [6] = assay: Intrinsic clearance in human liver microsome; format: ADME
Rattus norvegicus [7] = assay: AUC (0 to infinity) in rat at 5 mg/kg, sc; format: ADME, organism-based, Plasma; design: time infinity, dose 5 mg/kg, route subcutaneous; details: in vivo
[8] = Half life in rat at 1 mg/kg, iv; format: ADME, organism-based; design: dose 1 mg/kg, route intravenous; details: in vivo
Cytochrome P450 2D6 = Cytochrome P450 2D6 (Homo sapiens, UniProt P10635); assay: Binding affinity to CYP2D6; format: ADME
Chain of Cytochrome P450 2D6 (P10635 whole entry): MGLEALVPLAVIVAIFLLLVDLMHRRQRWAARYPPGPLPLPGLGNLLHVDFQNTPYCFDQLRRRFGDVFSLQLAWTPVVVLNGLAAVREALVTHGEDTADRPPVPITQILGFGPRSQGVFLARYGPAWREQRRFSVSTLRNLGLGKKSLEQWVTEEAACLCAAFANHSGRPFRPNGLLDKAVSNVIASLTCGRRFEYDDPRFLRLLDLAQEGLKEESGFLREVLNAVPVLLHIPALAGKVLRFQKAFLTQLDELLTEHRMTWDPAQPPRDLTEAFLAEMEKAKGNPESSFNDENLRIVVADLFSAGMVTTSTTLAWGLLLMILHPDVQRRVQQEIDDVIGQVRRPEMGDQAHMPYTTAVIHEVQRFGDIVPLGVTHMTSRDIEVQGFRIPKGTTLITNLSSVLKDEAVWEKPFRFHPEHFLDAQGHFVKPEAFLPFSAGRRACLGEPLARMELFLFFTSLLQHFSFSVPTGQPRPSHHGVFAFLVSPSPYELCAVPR

[9] = Oral bioavailability in rat at 5 mg/kg; format: ADME, organism-based; details: in vivo
[10] = AUC (0 to infinity) in rat brain at 1 mg/kg, iv; format: ADME, organism-based; design: time infinity, dose 1 mg/kg, route intravenous
Liver microsomes [11] = assay: Intrinsic clearance in rat liver microsome; format: ADME
Rattus norvegicus [12] = assay: AUC (0 to infinity) in rat plasma at 1 mg/kg, iv; format: ADME, organism-based; design: time infinity, dose 1 mg/kg, route intravenous; details: in vivo
[13] = target: T1, Sodium- and chloride-dependent glycine transporter 1; details: hek293
Description: as §1

Row | SMILES | IC50 [1] | further results
1 | O=S(=O)(NC[C@H](O)CN1CCCC1)c1cccc2ccccc12 | 3160 nM | –
2 | CC1CCCN1C[C@H](O)CNS(=O)(=O)c1cccc2ccccc12 (stereo partly drawn) | 12600 nM | –
3 | CCCN(C[C@@H](O)CNS(=O)(=O)c1cccc2ccccc12)C(C)(C)C | 1000 nM | –
4 | CCC1CCC(C)N(C[C@@H](O)CNS(=O)(=O)c2cccc3ccccc23)C1 (stereo partly drawn) | 1000 nM | –
5 | CC1CC(C)N(C[C@@H](O)CNS(=O)(=O)c2ccc3ccccc3c2)C1 (stereo partly drawn) | 3980 nM | –
6 | CC1CC(C)N(C[C@@H](O)CNS(=O)(=O)c2cccc(Cl)c2Cl)C1 (stereo partly drawn) | 2510 nM | –
7 | CC1CC(C)N(C[C@@H](O)CNS(=O)(=O)c2cc(Cl)sc2Cl)C1 (stereo partly drawn) | 3160 nM | –
8 | Cc1cc(S(=O)(=O)NC[C@H](O)CN2CC(C)CC2C)c(C)cc1Cl (stereo partly drawn) | 3160 nM | –
9 | CCc1cc(Br)ccc1S(=O)(=O)NC[C@H](O)CN1CC(C)CC1C (stereo partly drawn) | 3160 nM | –
10 | CC1CCC(C)N1C[C@H](O)CNS(=O)(=O)c1cccc2ccccc12 (stereo partly drawn) | 7940 nM | –
11 | CC[C@H]1CCCCN1C[C@@H](O)CNS(=O)(=O)c1cccc2ccccc12 | – | F (Rattus norvegicus [2]): 95%; clearance [3]: 18 mL/min/kg; half-life [4]: 54 min; Cmax [5]: 564 ng/mL; Drug uptake (Brain): 564 ng/mL; clearance (Liver microsomes [6]): 8 mL/min/g; AUC (Rattus norvegicus [7]): 1731 ng·h/mL; half-life [8]: 60 min; Activity (Cytochrome P450 2D6): 1.2 µM; bioavailability [9]: 4%; AUC(0-inf) [10]: 587 ng·h/mL; clearance (Liver microsomes [11]): 8 mL/min/g; AUC (Rattus norvegicus [12]): 952 ng·h/mL
12 | CC1CCCN(C[C@@H](O)CNS(=O)(=O)c2cccc3ccccc23)C1 (stereo partly drawn) | 3980 nM | –
13 | CCCN(C[C@@H](O)CNS(=O)(=O)c1cccc2ccccc12)C(C)CC (stereo partly drawn) | 1260 nM | –
14 | CC1CCCCN1C[C@@H](O)CNS(=O)(=O)c1cccc2ccccc12 (stereo partly drawn) | 316 nM | –
15 | CC1CCC(C)N1C[C@@H](O)CNS(=O)(=O)c1cccc2ccccc12 (stereo partly drawn) | 794 nM | –
16 | CC1CCCN1C[C@@H](O)CNS(=O)(=O)c1cccc2ccccc12 (stereo partly drawn) | 1000 nM | –

Row | SMILES | IC50 [1] | further results
17 | O=S(=O)(NC[C@H](O)CN1CCCCC1)c1cccc2ccccc12 | 3160 nM | –
18 | O=S(=O)(NC[C@H](O)CN1CCCC1C1CCCCC1)c1cccc2ccccc12 (single isomer, unassigned; isomer A) | – | Log IC50 [13]: -5.2
19 | CC(C)(C)C1CCCN1C[C@@H](O)CNS(=O)(=O)c1cccc2ccccc12 (single isomer, unassigned; isomer A) | 7940 nM | –
20 | CCC1CCCN1C[C@@H](O)CNS(=O)(=O)c1cccc2ccccc12 (single isomer, unassigned; isomer A) | 1260 nM | –
21 | CC(C)C1CCCCN1C[C@@H](O)CNS(=O)(=O)c1cccc2ccccc12 (single isomer, unassigned; isomer A) | 3980 nM | –
22 | CC(C)CC1CCCN1C[C@@H](O)CNS(=O)(=O)c1cccc2ccccc12 (single isomer, unassigned; isomer A) | 6310 nM | –
23 | CC(C)C1CCCN1C[C@@H](O)CNS(=O)(=O)c1cccc2ccccc12 (single isomer, unassigned; isomer A) | 1000 nM | –
24 | O=S(=O)(NC[C@H](O)CN1CCCC1C1CCCCC1)c1cccc2ccccc12 (single isomer, unassigned; isomer B) | 6310 nM | –
25 | CC(C)(C)C1CCCN1C[C@@H](O)CNS(=O)(=O)c1cccc2ccccc12 (single isomer, unassigned; isomer B) | 200 nM | –
26 | O=S(=O)(NC[C@H](O)CN1CCCC1C1CC1)c1cccc2ccccc12 (single isomer, unassigned; isomer B) | 501 nM | –
27 | CCC1CCCN1C[C@@H](O)CNS(=O)(=O)c1cccc2ccccc12 (single isomer, unassigned; isomer B) | 1580 nM | –
28 | CC(C)CC1CCCN1C[C@@H](O)CNS(=O)(=O)c1cccc2ccccc12 (single isomer, unassigned; isomer B) | 2510 nM | –
29 | CC(C)C1CCCN1C[C@@H](O)CNS(=O)(=O)c1cccc2ccccc12 (single isomer, unassigned; isomer B) | 200 nM | –
30 | O=S(=O)(NC[C@H](O)CN1CCCC1C1CC1)c1cccc2ccccc12 (stereo in doubt) | 1580 nM | –
31 | CC(C)C1CCCCN1C[C@@H](O)CNS(=O)(=O)c1cccc2ccccc12 (stereo in doubt) | 631 nM | –

Reference: ChEMBL document CHEMBL1139093, “1,3-diaminopropan-2-ol sulfonamides as potent and selective inhibitors of the glycine transporter type 1” (Bioorg Med Chem Lett, 2007)
